# Data: patent US7064114B2, “Gel-microemulsion formulations” (priority 1999, dated 2006)
# Values joined by “and” are separate entries in the source; they are usually repeats but may differ in a detail not shown here. Identical values can stand only once.
# Experiments:
# [1] = Octanol/water partition coefficient of WHI-07; format: physicochemical
# Experimental: (§1) After the drug was completely dissolved in octanol, 5 ml of water was added to each octanol solution. The mixtures were handshaken vigorously for 10 min, and afterward let to stand overnight until a complete phase separation occurred.
# Samples of water and octanol were taken from each mixture, and directly injected into the HPLC for analysis. The peak area ratios represent the partition coefficient.
# Solubility of WHI-07 = format: physicochemical; details: for solubility at 2 h: thermodynamic from solid, n = 3
# Experimental: as §1
# The solubility of WHI-07 in Captex® 300 and polyethylene glycol 300 was carried out using UV-Vis spectrophotometer at 272 nm.
# Calibration curve: Two stock solutions of WHI-07 were prepared in ethanol at concentrations of 4.2 mg/ml and 3.85 mg/ml respectively. The plot of the calibration curve is shown in Curve 1.
# Appropriate amounts of WHI-07 and Captex® 300 or PEG300 were weighed and placed in glass containers. Each sample was stirred with a stir bar at ambient temperature for 2 hours. Each sample was then filtered through 0.45 μm filter, and diluted with ethanol for UV-Vis measurement.
# human sperm = experiment: Computer-assisted spermicidal assay (CASA) on washed highly motile fraction of sperm; format: cell-based; details: 3 h at 37° C.; for effect on human sperm motility: concentrations up to those used for GM-4, CASA
# Experimental: All donor specimens were obtained after informed consent and in compliance with the guidelines of the Parker Hughes Institute Institutional Review Board. […] Sigma Chemical Co., St. Louis, Mo.) in the presence and absence of serial 2-fold dilutions of test substance. […] After 3 h incubation at 37° C., the sperm head centroid-derived sperm motility parameters were determined using a Hamilton Thorne Research (Danvers, Mass.) Integrated Visual Optical System (IVOS), version 10 instrument, as previously described (D'Cruz O J, et al., Biol Reprod, 1998;58:1515-26.; D'Cruz O J, et al., Mol Hum Reprod, 1998;4:683-93.; D'Cruz O J, et al., Biol Reprod, 1999;60:435-44.; D'Cruz O J, et al. Biol Reprod, 1999;60:1419-28.). The attributes of sperm kinematic parameters evaluated included numbers of motile (MOT) and progressively (PRG) motile sperm; curvilinear velocity (VCL); average path velocity (VAP); straight-line velocity (VSL); beat-cross frequency (BCF); and the amplitude of lateral head displacement (ALH) and the derivatives, straightness (STR) and linearity (LIN). Data from each individual cell track were recorded and analyzed. For each aliquot sampled, >200 sperm were analyzed. The percentage motilities were compared with those of sham-treated control suspensions of motile sperm.
# [2] = cited from earlier work
compound,measurement,setting,value
"COC(=O)C(C)NP(=O)(OC[C@H]1O[C@@H](N2C(=O)NC(=O)C(C)(Br)C2OC)CC1N=[N+]=[N-])Oc1ccc(Br)cc1 (mixture of isomers) [WHI-07, (5R,6R)-and (5S,6S)-5-bromo-6-methoxy-5,6-dihydro-AZT-5′-(para-bromophenylmethoxyalaninyl phosphate)]",logP,"[1]; octanol/water, average of four samples, read-out: Octanol/Water partition coefficient Log KD",2.05
same,Peak area ratio Octanol/water,"[1]; single samples 1-4, HPLC",113.9 and 111.3 and 115.8 and 109.2
same,solubility in oil (medium chain triglyceride),Solubility of WHI-07; medium chain triglyceride,4.1%
same,solubility at 2 h,"Solubility of WHI-07; oil or lipid, in Captex® 300, ambient temperature",40.6 mg/mL
same,solubility at 2 h,"Solubility of WHI-07; organic solvent or mixture, in PEG300, ambient temperature",132 mg/mL
same,solubility in polyethylene glycol 300,Solubility of WHI-07; polyethylene glycol 300,13.1%
same,solubility in water,Solubility of WHI-07; water,< 0.003%
"CC(O)CO (stereo not drawn) [propylene glycol, propane-1,2-diol]",EC50 (concentration that decreased the proportion of motile sperm by 50%),human sperm,> 4.2%
same,effect on human sperm motility,human sperm,partially spermicidal at the highest concentration tested
O=C([O-])c1ccccc1.[Na+] [sodium benzoate],effect on human sperm motility,human sperm,little or no inhibitory effects
isononyl-phenyl-polyoxyethylene (9) ether [N-9],average 6-month pregnancy rate,"[2]; users of N-9, several large studies",26%
same,effectiveness in preventing pregnancy,[2]; users of N-9,approximately 75%
